pIC50: −log10 of the molar value. Where two headings read alike, the source gives them in different places.

In one assay the target is leukotriene B4 receptors (Cavia porcellus, UniProt H0VYV8). Put plainly: biochemical. Type of assay: binding, guinea-pig. Particulars: Table XIX; guinea-pig spleen membranes, tritium-labelled LTB4; read-out: IC50 Binding (Cheng).
Assay [1] has as its system guinea-pig pulmonary parenchyma. Put plainly: L. Parenchyma: guinea-pig pulmonary parenchyma contraction antagonism induced by LTB4 (Sirois). The format is cell-based. As to conditions: read-out: IC50 L. Parenchyma. How it is done: Further, compounds of this invention are shown to be leukotriene B4 antagonists in the technique of guinea-pig pulmonary parenchyma contraction antagonism induced by LTB4 described by P. Sirois et al., Pharmacology, 31, 225-236 (1985). In this technique, products are active at concentrations of between about 1 to about 10,000 nM.

Setting [2] is: Cavia porcellus, Table XIX, guinea-pig pulmonary parenchyma contraction induced by LTB4.

leukotriene B4 receptors, sequence (H0VYV8 1-348): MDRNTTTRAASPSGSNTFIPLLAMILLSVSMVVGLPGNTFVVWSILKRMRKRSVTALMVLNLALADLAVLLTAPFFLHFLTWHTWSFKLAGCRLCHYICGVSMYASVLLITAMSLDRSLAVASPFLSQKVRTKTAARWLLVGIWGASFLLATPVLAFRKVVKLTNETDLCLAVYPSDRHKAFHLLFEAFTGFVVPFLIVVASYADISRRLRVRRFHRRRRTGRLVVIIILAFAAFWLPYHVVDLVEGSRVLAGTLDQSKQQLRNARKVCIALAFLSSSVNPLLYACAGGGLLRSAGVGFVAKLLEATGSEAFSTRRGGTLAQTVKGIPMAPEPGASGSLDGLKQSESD

With `CC(C)(CCCCOc1cc(-c2cccc(Cl)c2)cc(-c2ccccc2)n1)C(=O)O` [2,2-dimethyl-6-{[4-(3-chlorophenyl)-6-phenyl-2-pyridyl]oxy}hexanoic acid], the pIC50 at leukotriene B4 receptors was 7.89; in assay [1] (setting [2]), 6.00.
For `CC(C)(CCCCOc1cc(-c2ccccc2)ccn1)C(=O)O` [6-[(4-phenyl-2-pyridyl)oxy]-2,2-dimethylhexanoic acid], the pIC50 at leukotriene B4 receptors is 7.40; in assay [1] (setting [2]) it was 5.52.
On to “6-[(6-cyclopropyl-5-phenyl-2-pyridyl)oxy]-2,2-dimethylhexanoic acid”, for which the pIC50 at leukotriene B4 receptors is 8.40; in assay [1] (Table XIX, guinea-pig pulmonary parenchyma contraction induced by LTB4) it was 6.70.
Turning to `O=C(O)CCCCCOc1cc(-c2ccccc2)cc(-c2cccc(F)c2)n1` [6-{[6-(3-fluorophenyl)-4-phenyl-2-pyridyl]oxy}hexanoic acid], the pIC50 on leukotriene B4 receptors was 8.40; in assay [1] (setting [2]), 6.82.
In the case of `O=C(O)CCCCCOc1cc(-c2ccc(F)cc2)cc(-c2ccccc2)n1` [6-{[4-(4-fluorophenyl)-6-phenyl-2-pyridyl]oxy}hexanoic acid], the values for the pIC50 (on leukotriene B4 receptors; in assay [1] (setting [2])) were 8.52 and 6.10, respectively.
On to `O=C(O)CCCCCOc1cc(-c2ccc(Cl)cc2)cc(-c2ccccc2)n1` [6-{[4-(4-chlorophenyl)-6-phenyl-2-pyridyl]oxy}hexanoic acid], for which the pIC50 at leukotriene B4 receptors was 8.00; in assay [1] (setting [2]) it was 7.00.
In the case of `O=C(O)CCCCOc1cc(-c2ccccc2)cc(-c2ccccc2)n1` [5-[(4,6-diphenyl-2-pyridyl)oxy]pentanoic acid], the pIC50 on leukotriene B4 receptors was 7.30; in assay [1] (setting [2]) it was 5.70.
As to `CC(CCCCOc1cc(-c2ccc(F)cc2)cc(-c2ccccc2)n1)C(=O)O` (centres unmarked) [2-methyl-6-{[4-(4-fluorophenyl)-6-phenyl-2-pyridyl]oxy}hexanoic acid], the pIC50 is 8.77 at leukotriene B4 receptors and 7.22 in assay [1] (setting [2]).
The like results for `CC(C)(CCCCOc1cc(-c2ccccc2)cc(-c2ccccc2)n1)c1nnn[nH]1` [5-{1,1-dimethyl-5-[(4,6-diphenyl-2-pyridyl)oxy]pentyl}-[1H]-tetrazole] were, in that order, 8.15 and 7.70.
Consider `O=C(O)CCCCCCOc1cc(-c2ccccc2)cc(-c2ccccc2)n1` [7-[(4,6-diphenyl-2-pyridyl)oxy]heptanoic acid], for which the pIC50 on leukotriene B4 receptors was 7.60; in assay [1] (setting [2]) it was 5.89.
Consider `COc1ccc(-c2cc(OCCCCC(C)(C)C(=O)O)nc(-c3ccccc3)c2)cc1` [2,2-dimethyl-6-{[4-(4-methoxyphenyl)-6-phenyl-2-pyridyl]oxy}hexanoic acid], for which the pIC50 is 7.30 on leukotriene B4 receptors and 6.77 in assay [1] (setting [2]).
Take `CSc1ccc(-c2cc(OCCCCCC(=O)O)nc(-c3ccccc3)c2)cc1` [6-{[4-(4-methylthiophenyl)-6-phenyl-2-pyridyl]oxy}hexanoic acid]: the negative logarithm of the IC50 (pIC50) was 8.00 at leukotriene B4 receptors and 5.52 in assay [1] (setting [2]).
In the case of `O=C(O)c1ccc(COc2cc(-c3ccccc3)cc(-c3ccccc3)n2)cc1` [4-[(4,6-diphenyl-2-pyridyl)oxymethyl]benzoic acid], the pIC50 at leukotriene B4 receptors is 6.46; in assay [1] (setting [2]) it was 5.00.
The matching figures for `COc1cccc(-c2cc(OCCCCCC(=O)O)nc(-c3ccccc3)c2)c1` [6-{[4-(3-methoxyphenyl)-6-phenyl-2-pyridyl]oxy}hexanoic acid]: 8.10 and 6.70.
Take `O=C(O)CCCCCOc1cc(-c2ccc(F)cc2)cc(-c2ccccc2F)n1` [6-{[4-(4-fluorophenyl)-6-(2-fluorophenyl)-2-pyridyl]oxy}hexanoic acid]: the pIC50 on leukotriene B4 receptors was 8.00; in assay [1] (setting [2]), 6.00.
`O=C(O)CCCCCOc1cc(-c2ccccc2)cc(-c2ccccc2Cl)n1`: the negative logarithm of the IC50 (pIC50) is 8.74 at leukotriene B4 receptors and 6.70 in assay [1] (Cavia porcellus).
Regarding `Cc1ccc(-c2cc(OCCCCCC(=O)O)nc(-c3ccccc3)c2)cc1` [6-{[4-(4-methylphenyl)-6-phenyl-2-pyridyl]oxy}hexanoic acid], the pIC50 on leukotriene B4 receptors was 7.82; in assay [1] (setting [2]), 7.00.
With `CCC(C)(CCCCOc1cc(-c2ccccc2)cc(-c2ccccc2)n1)C(=O)O` (centres unmarked) [2-ethyl-2-methyl-6-[(4,6-diphenyl-2-pyridyl)oxy]hexanoic acid], the pIC50 is 7.77 on leukotriene B4 receptors and 7.52 in assay [1] (setting [2]).
Turning to `COc1cccc(-c2cc(OCCCCC(C)(C)C(=O)O)nc(-c3ccccc3)c2)c1` [2,2-dimethyl-6-{[4-(3-methoxyphenyl)-6-phenyl-2-pyridyl]oxy}hexanoic acid], the pIC50 was 8.70 at leukotriene B4 receptors and 7.52 in assay [1] (setting [2]).
Take `COc1ccc(-c2cc(OCCCCCC(=O)O)nc(-c3ccccc3)c2)cc1` [6-{[4-(4-methoxyphenyl)-6-phenyl-2-pyridyl]oxy}hexanoic acid]: the results for the pIC50 (at leukotriene B4 receptors; in assay [1] (setting [2])) were 7.82 and 5.96, respectively.
Take `O=C(O)CCCCCOc1cc(-c2ccccc2)cc(-c2ccsc2)n1` [6-{[4-phenyl-6-(3-thienyl)-2-pyridyl]oxy}hexanoic acid]: the pIC50 is 8.00 at leukotriene B4 receptors and 6.00 in assay [1] (setting [2]).
For the compound `CC(C)(CCCCOc1cc(-c2ccccc2)cc(-c2cccs2)n1)C(=O)O` [2,2-dimethyl-6-{[4-phenyl-6-(2-thienyl)-2-pyridyl]oxy}hexanoic acid], the figures for the pIC50 (at leukotriene B4 receptors; in assay [1] (setting [2])) were 7.82 and 6.00, respectively.
The matching figures for `COC(=O)CCCCCOc1cc(-c2ccccc2)cc(-c2ccccc2)n1` [methyl 6-[(4,6-diphenyl-2-pyridyl)oxy]hexanoate]: 7.40 and under 5.00.
With `O=C(O)CCCCCOc1cc(-c2ccccc2)cc(-c2ccccc2)n1` [6-[(4,6-diphenyl-2-pyridyl)oxy]hexanoic acid], the results for the pIC50 (at leukotriene B4 receptors; in assay [1] (setting [2])) were 8.52 and 6.52, respectively.
As to `O=C(O)CCCCCOc1cc(-c2ccc3c(c2)OCO3)cc(-c2ccccc2)n1` [6-{[4-(3,4-methylenedioxyphenyl)-6-phenyl-2-pyridyl]oxy}hexanoic acid], the pIC50 was 9.00 on leukotriene B4 receptors and 8.30 in assay [1] (setting [2]).

In general, pIC50 refers to −log10 of the IC50, conventionally taken in molar units.
